From patent US12697411B2, “In-situ film-forming composition” (priority 2021, dated 2026)

Assay: Stability of the disinfectant (LAE) in contact with the polyamide lacquer, LC-MS of the film
Type: physicochemical
Details: Spray 1 (composition of Example 1) in polyamide-lacquered container, 3 months at 50° C.; LAE measured in film
Description: Besides, the stability of the disinfectant (LAE) present in the composition of Example 1 of the present invention in contact with the polyamide lacquer of the container was measured. Full containers loaded with Spray 1 of the present invention were controlled at 50° C. for 3 months, at 40° C. form 4 to 9 months, and at 30° C. from 6 to 18 months. After that time, the composition was applied to a surface to form the adherent film, in which the amount of LAE was calculated (mg of LAE/g of film).
The method for calculating the amount of LAE consists of a liquid chromatography-mass spectrometry (LC-MS) analysis of the tested sample previously sprayed into a container (glass flask) and dried into a rotary evaporator. The exact and constant weight of the residue is determined. This residue is dissolved in Acetonitrile and doped with a known volume solution of a solution f the internal pattern (Dodine, commercially available) in a known concentration. Then it is stirred and then, pure water at pH 3-4 (acidified with HCl) is added still flushing, this allows precipitating the polymer. The supernatant is filtered and punctured by LC-MS.
• Detector: ACQ-QDa mass Detector • Column: Kromasil 100-5-C18 150×4.0 mm. (5 μm, 100 Å) • System design: Mobil phase entrance-Column-PDA entrance-QDa entrance-Waste Exit
• Fluxe: 1.00 mL/min. […]

SMILES: CCCCCCCCCCCC(=O)N[C@@H](CCCN=C(N)N)C(=O)OCC.Cl [LAE, Ethyl lauroyl arginate hydrochloride salt]
- reduction of the amount of disinfectant (LAE): about 11%
